“Also recorded” adds a separate entry of the source.
Assays:
MDA-MB-231 cells = experiment: MTT cytotoxicity assay, MDA-MB-231; format: cell-based; conditions: Homo sapiens, 36 hours, read-out: Cancer Cell Cytotoxicity IC50 MDA-MB-231
Experimental: (§1) In order to determine the cytotoxic activity of LFM and its analogs against breast cancer cells, cells in alpha-MEM supplemented with 10% (v/v) fetal calf serum were treated with various concentrations of the compounds for 24 hours at 37° C., washed twice in alpha-MEM, and then used in either MTT assays or in vitro invasion assays, as described hereinafter.
The cytotoxicity of various compounds against human breast cancer cell lines was analyzed using the MTT (3-[4,5-dimethylthiazol-2-yl]-2,5-diphenyl tetrazolium bromide) assay (Boehringer Mannheim Corp., Indianapolis, Ind.). Uckun F. M., et al. Clin. Cancer Res. 1998, 4, 901-912. Exponentially growing breast cancer cells were seeded into a 96-well plate at a density of 2.5×10^4 cells/well and incubated for 36 hours at 37° C. prior to drug exposure. On the day of treatment, culture medium was carefully aspirated from the wells and replaced with fresh medium containing the LFM analogs at concentrations ranging from 2 to 250 μM. Triplicate wells were used for each treatment. The cells were incubated with the various compounds for 36 hours at 37° C. in a humidified 5% CO2 atmosphere. To each well, 10 μl of MTT (0.5 mg/ml final concentration) was added and the plates were incubated at 37° C. for 4 hours to allow MTT to form formazan crystals by reacting with metabolically active cells. The formazan crystals were solubilized overnight at 37° C. in a solution containing 10% SDS in 0.01 M HCl. The absorbence of each well was measured in a microplate reader (Labsystems) at 540 nm and a reference wavelength of 690 nm.
To translate the absorbance A540 values into the number of live cells in each well, the A540 values were compared to those on standard A540-versus-cell number curves generated for each cell line. The percent survival was calculated using the formula: % survival=Live cell number[test]/Live cell number [control]×100. The IC50 values were calculated by non-linear regression analysis using an Graphpad Prism software version 2.0 (Graphpad Software, Inc., San Diego, Calif.).

BTK = target: T1, BTK (Homo sapiens, UniProt Q06187); experiment: Cell-free BTK immune complex kinase assay; format: biochemical; conditions: for effect on enzymatic activity of BTK: at concentrations as high as 350 μM
T1 construct: made in house; host or cells: Sf21 insect cells (baculovirus)
T1 sequence (Q06187 whole entry, species assumed): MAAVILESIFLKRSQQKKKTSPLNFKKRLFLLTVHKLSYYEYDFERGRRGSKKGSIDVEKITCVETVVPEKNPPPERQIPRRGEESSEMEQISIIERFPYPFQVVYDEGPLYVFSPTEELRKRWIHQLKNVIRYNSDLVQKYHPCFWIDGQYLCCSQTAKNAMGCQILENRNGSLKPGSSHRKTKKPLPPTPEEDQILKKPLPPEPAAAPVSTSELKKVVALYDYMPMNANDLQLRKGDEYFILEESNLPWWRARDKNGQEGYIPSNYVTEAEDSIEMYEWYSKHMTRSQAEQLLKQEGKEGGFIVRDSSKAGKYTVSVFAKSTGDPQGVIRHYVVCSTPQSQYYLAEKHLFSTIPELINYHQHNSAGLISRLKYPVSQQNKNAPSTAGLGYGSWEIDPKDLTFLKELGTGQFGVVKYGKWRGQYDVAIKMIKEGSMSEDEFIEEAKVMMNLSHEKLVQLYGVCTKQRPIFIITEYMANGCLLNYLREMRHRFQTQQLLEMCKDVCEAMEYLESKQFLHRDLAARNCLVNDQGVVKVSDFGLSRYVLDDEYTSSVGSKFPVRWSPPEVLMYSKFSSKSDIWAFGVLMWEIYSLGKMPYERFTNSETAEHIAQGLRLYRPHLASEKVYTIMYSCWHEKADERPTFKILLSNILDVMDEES
Experimental: (§2) Immunoprecipitations, immune-complex protein kinase assays, and immunoblotting using the ECL chemiluminescence detection system (Amersham Life Sciences) were conducted as described previously (Vassilev, A., et al. J. Biol. Chem. 1998, in press; Goodman, P. A., et al. J. Biol. Chem. 1998, 273, 17742; Mahajan, S., et al. Mol. Cell. Biol. 1995, 15, 5304; Uckun, F. M., et al. Science 1996, 22, 1096).

[1] = target: T2, insulin receptor kinase (IRK) (Homo sapiens, UniProt P06213); experiment: Cell-free IRK immune complex kinase assay; format: biochemical; conditions: for effect on enzymatic activity of IRK: at concentrations as high as 350 μM, IRK from HepG2 cells
T2 construct: IRK was immunoprecipitated from the lysates with an anti-IRb antibody; endogenous in cells; host or cells: HepG2 human hepatoma cells (ATCC)
T2 sequence (P06213 763-1382 limits assumed): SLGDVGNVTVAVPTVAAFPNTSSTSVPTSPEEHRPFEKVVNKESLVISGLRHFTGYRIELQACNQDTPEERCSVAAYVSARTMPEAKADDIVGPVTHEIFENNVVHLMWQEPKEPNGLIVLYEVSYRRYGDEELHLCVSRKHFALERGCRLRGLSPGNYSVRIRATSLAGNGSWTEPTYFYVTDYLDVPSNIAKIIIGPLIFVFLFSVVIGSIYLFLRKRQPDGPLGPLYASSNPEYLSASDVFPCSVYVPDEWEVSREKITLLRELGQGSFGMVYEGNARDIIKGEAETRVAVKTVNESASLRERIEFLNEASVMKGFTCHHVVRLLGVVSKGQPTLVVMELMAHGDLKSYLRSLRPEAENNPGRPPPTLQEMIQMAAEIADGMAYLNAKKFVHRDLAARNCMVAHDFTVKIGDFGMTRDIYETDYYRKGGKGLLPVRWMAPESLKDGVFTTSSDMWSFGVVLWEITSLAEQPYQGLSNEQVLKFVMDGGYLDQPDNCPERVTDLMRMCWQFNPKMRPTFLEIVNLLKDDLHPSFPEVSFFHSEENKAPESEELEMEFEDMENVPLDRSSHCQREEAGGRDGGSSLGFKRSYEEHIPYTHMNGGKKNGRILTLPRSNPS
T2 sequence (P06213 28-758 partner limits assumed): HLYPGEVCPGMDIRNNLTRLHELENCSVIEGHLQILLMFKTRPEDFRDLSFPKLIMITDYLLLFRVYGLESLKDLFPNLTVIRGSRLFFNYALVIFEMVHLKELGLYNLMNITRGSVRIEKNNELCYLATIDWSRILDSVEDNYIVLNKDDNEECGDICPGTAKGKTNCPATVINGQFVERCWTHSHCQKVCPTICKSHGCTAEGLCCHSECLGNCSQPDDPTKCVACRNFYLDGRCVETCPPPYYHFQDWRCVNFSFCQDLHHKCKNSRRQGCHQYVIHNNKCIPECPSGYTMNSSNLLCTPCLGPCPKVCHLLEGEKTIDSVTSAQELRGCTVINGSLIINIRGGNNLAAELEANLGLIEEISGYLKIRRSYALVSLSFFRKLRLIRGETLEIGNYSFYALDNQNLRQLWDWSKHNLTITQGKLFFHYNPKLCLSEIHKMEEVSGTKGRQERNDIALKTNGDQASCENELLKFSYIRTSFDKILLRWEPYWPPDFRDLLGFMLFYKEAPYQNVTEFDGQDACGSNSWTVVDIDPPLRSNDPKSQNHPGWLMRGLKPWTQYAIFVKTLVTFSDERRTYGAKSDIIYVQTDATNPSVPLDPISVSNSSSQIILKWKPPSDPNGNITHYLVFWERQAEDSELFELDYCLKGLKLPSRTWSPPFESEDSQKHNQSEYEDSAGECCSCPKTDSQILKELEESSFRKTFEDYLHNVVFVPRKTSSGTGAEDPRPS
Experimental: as §2
Horse radish peroxidase-conjugated sheep anti-mouse, donkey anti-rabbit secondary antibodies and ECL reagents were purchased from Amersham (Oakbrook, Ill.). For insulin receptor kinase (IRK) assays, HepG2 human hepatoma cells grown to approximately 80% confluency were washed once with serum-free DMEM and starved for 3 hour at 37° in a CO2 incubator. Subsequently, cells were stimulated with insulin (Eli Lilly, cat# CP-410;10 units/ml/10×10^6 cells) for 10 minutes at room temperature. Following this IRK activation step, cells were washed once with serum free medium, lysed in NP-40 buffer and IRK was immunoprecipitated from the lysates with an anti-IRb antibody (Santa Cruz, Cat.# sc-711, polyclonal IgG). Prior to performing the immunecomplex kinase assays, the beads were equilibrated with the kinase buffer (30 mM Hepes pH 7.4, 30 mM NaCl, 8 mM MgCl2, 4 mM MnCl2).

HCK = target: T3, HCK (Homo sapiens, UniProt P08631); experiment: Cell-free HCK immune complex kinase assay; format: biochemical; conditions: for effect on enzymatic activity of HCK: at concentrations as high as 350 μM, HCK from transfected COS7 cells
T3 construct: expressed in transfected cells; host or cells: COS-7 simian kidney cells
T3 sequence (P08631 whole entry, species assumed): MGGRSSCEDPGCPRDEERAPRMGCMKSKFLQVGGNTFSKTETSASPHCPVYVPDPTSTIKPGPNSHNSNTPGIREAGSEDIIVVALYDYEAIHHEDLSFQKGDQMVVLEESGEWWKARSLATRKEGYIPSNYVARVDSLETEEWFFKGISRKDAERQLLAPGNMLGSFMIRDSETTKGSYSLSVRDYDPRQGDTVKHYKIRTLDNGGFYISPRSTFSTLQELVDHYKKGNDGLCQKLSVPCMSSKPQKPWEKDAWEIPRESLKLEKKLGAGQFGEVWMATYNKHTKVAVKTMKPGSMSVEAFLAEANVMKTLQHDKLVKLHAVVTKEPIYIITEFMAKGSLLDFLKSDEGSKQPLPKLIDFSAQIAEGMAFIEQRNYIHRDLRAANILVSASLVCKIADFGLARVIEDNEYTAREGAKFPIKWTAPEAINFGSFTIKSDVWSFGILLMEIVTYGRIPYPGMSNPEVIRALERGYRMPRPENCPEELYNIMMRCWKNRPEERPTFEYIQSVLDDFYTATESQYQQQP
Experimental: as §2
For HCK kinase assays, we used HCK-transfected COS-7 cells. The cloning and expression of HCK in COS-7 cells has been described previously (Saouaf, S. J., et al. J. Biol. Chem. 1995, 270, 27072). The pSV7c-HCK plasmid was transfected into 2×10^6 COS-7 cells using Lipofectamine (GIBCO/BRL), and the cells were harvested 48 hours later. The cells were lysed in NP-40 buffer and HCK was immunoprecipitated from the whole cell lysates with an anti-HCK antibody.

MDA-MB-361 cells = experiment: In vitro clonogenic assay, MDA-MB-361; format: cell-based, human; conditions: 24 hour treatment; for inhibition at 0.1 µM / inhibition at 10 µM / inhibition at 100 µM: Homo sapiens
Experimental: as §1
After treatment with LFM analogs, cells were resuspended in clonogenic medium consisting of alpha-MEM supplemented with 0.9% methylcellulose, 30% fetal bovine serum, and 50 μM 2-mercaptoethanol. Cells were plated in duplicate Petri dishes at 100,000 cells/mL/dish and cultured in a humidified 5% CO2 incubator for 7 days. Cancer cell colonies were enumerated on a grid using an inverted phase microscope of high optical resolution (Uckun F. M., et al. Clin. Cancer Res. 1998, 4, 901-912; and Kuo). Results were expressed as % inhibition of clonogenic cells at a particular concentration of the test agent using the formula: % Inhibition=(1-Mean # of colonies [Test]/Mean # of colonies [Control])×100. Furthermore, the dose survival curves were constructed using the percent control survival (=Mean # of colonies[Test]/Mean # of colonies [Control]×100) results for each drug concentration as the data points and the IC50 values were calculated. The IC50 values were determined using an Prism Version II Inplot program (Graphpad Software, Inc., San Diego, Calif.).

Row | effect on enzymatic activity of BTK (BTK) | IC50 (BTK; BTK, cell-free, read-out: Inhibition IC50) [µM] | IC50 ([1]; IRK, cell-free, read-out: Inhibition IC50) [µM] | IC50 (HCK; HCK, cell-free, read-out: Inhibition IC50) [µM] | SMILES | IC50 (MDA-MB-231 cells) [µM] | effect on enzymatic activity of IRK [1] | effect on enzymatic activity of HCK (HCK) | inhibition at 0.1 µM (MDA-MB-361 cells; MDA-MB-361, 0.1 μM) [%] | inhibition at 10 µM (MDA-MB-361 cells; MDA-MB-361, 10 μM) [%] | inhibition at 100 µM (MDA-MB-361 cells; MDA-MB-361, 100 μM) [%] | Tumor Cell Colonies/10^5 Cells (MDA-MB-361 cells; MDA-MB-361, 0.1 μM) | Tumor Cell Colonies/10^5 Cells (MDA-MB-361 cells; MDA-MB-361, 10 μM) | Tumor Cell Colonies/10^5 Cells (MDA-MB-361 cells; MDA-MB-361, 100 μM)
1 | did not affect the enzymatic activity | – | – | – | CC(O)=C(C#N)C(=O)Nc1ccc(C(F)(F)F)cc1 [LFM, α-Cyano-β-hydroxy-β-methyl-N-[4-(trifluoromethyl)phenyl]-propenamide, reference compound] | 199 | did not affect the enzymatic activity; also recorded: lack of inhibition | did not affect the enzymatic activity; also recorded: lack of inhibition | 27.3 | 51.5 | 82.3 | 803 | 535 | 196
2 | did not affect the enzymatic activity | > 175 | > 350 | > 350 | C/C(O)=C(\C#N)C(=O)Nc1ccc(OC(F)(F)F)cc1 [LFM-A12, α-Cyano-β-hydroxy-β-methyl-N-[4-(trifluoromethoxy)phenyl]-propenamide] | 53.4 | did not affect the enzymatic activity; also recorded: lack of inhibition | did not affect the enzymatic activity; also recorded: lack of inhibition | 32.4 | 60.2 | 87.3 | 746 | 440 | 140
